Measured values reported in BindingDB's records for doi:10.1021/jm020335m (Abbott Laboratories, 2003).
pEC50: −log10 of the molar value.

Key:
[1] = Inhibition of concanavalin A stimulated T-cell proliferation in human PBMCs
[2] = Inhibition of concanavalin A stimulated rat splenocyte proliferation

| SMILES | pEC50 [1] | pEC50 [2] |
| --- | --- | --- |
| C=CCC1Oc2cccc(C=C)c2-c2ccc3c(c21)C(C)=CC(C)(C)N3 (configuration not stated) [5-Allyl-2,2,4-trimethyl-10-vinyl-2,5-dihydro-1H-6-oxa-1-aza-chrysene] | < 6.00 | 7.05 |
| C=CCC1Oc2cccc(Cl)c2-c2ccc3c(c21)C(C)=CC(C)(C)N3 (configuration not stated) [5-Allyl-10-chloro-2,2,4-trimethyl-2,5-dihydro-1H-6-oxa-1-aza-chrysene] | 6.36 | < 6.00 |
| C=CCC1Oc2cccc(OC(F)F)c2-c2ccc3c(c21)C(C)=CC(C)(C)N3 (configuration not stated) [5-Allyl-10-difluoromethoxy-2,2,4-trimethyl-2,5-dihydro-1H-6-oxa-1-aza-chrysene] | 6.25 | 7.07 |
| C=CCC1Oc2ccc(O)c(OC)c2-c2ccc3c(c21)C(C)=CC(C)(C)N3 (configuration not stated) [5-Allyl-10-methoxy-2,2,4-trimethyl-2,5-dihydro-1H-6-oxa-1-aza-chrysen-9-ol] | 6.84 | 7.11 |
| C=CCC1Oc2cccc(OC)c2-c2ccc3c(c21)C(C)=CC(C)(C)N3 (configuration not stated) [5-Allyl-10-methoxy-2,2,4-trimethyl-2,5-dihydro-1H-6-oxa-1-aza-chrysene] | 6.11 | 7.32 |
| C=CCC1Oc2cccc(NC)c2-c2ccc3c(c21)C(C)=CC(C)(C)N3 (configuration not stated) [(5-Allyl-2,2,4-trimethyl-2,5-dihydro-1H-6-oxa-1-aza-chrysen-10-yl)-methyl-amine] | 6.38 | 7.32 |
